According to US20220133618A1, “Low Surfactant Personal Care Compositions” (The Procter & Gamble Company, priority 2020, published 2022):

Assays:
[1] = tested on: keratinocytes on de-epidermized dermis (DED); assay: TEWL (transepidermal water loss) on organotypic epidermis cultures; assay type: cell-based, human; details: topical treatment 20 minutes, washed, reading after 24 hours; higher value = worse
Text: TEWL (transepidermal water loss) is a common clinical measure used to compare the mildness of surfactant-based formulations for skin (Rogiers 2001; Berardesca and Maibach 1990; Brink et al. 2019; O'Connor, Ogle, and Odio 2016; Thune et al. 1988). TEWL is considered to provide a relative understanding of individual skin barrier quality in relation to onset of disease, environmental impacts and exposure to topical formulations, such as consumer products (Alexander et al. 2018). […]
De-epithelialized dermis (DED) was prepared by removing fat from the skin sample with a scalpel, cutting the skin into squares measuring 1.25 cm^2, and placing the samples in 1M NaCl plus 10× penicillin/streptomycin. […] The following day, the epidermis was carefully peeled off with forceps and dermal tissue was stored in phosphate-buffered saline (PBS) plus 2× penicillin/streptomycin at 4° C. until ready for use. […]
At day 7 at the air-liquid interface, the cultures were treated topically with full or diluted formulas by cotton swab or by pipetting 6-50 ul, depending on product viscosity. […] Once equilibrated the cultures were placed on the lid of a sterile 150 mm petri dish and TEWL readings were taken using a Delfin Vapometer containing a silicone O-ring adaptor provided by the manufacturer. […]

[2] = Syringe filter polymer cleaning procedure (syringe method); details: Table 4; controls; Decyl Glucoside 2% starting active before dilution
Experimental: Procedure for Syringe Filter Polymer Cleaning
1) materials used in syringe cleaning procedure: • A. 0.15% Oil Red 0 dyed >95% pure Glyceryl Trioleate oil (See below—Procedure for preparing 0.15% Oil Red 0 dyed Triolein oil (Glyceryl trioleate)) • B. Syringe Filters: 30 mm, 5 um Nylon syringe filters; (Thermo Fischer Scientific Co, Waltham, Mass.: Part #F2500-50) • C. 24 ml Norm-ject luer (slip tip) syringes Ref #4200-00V0 (These are silicone free syringes) • D. Isopropanol (IPA) • E. Polymer Solutions/mixtures—diluted with distilled water to the desired percentage (typically 0.5% for a polymer only solution and 10% for a full formulation unless otherwise noted in the examples). • F. Plastic drain tubing having a diameter to fit over the slip tip of the syringe filter tightly
Syringe Pump Settings • Syringe Diameter: 20 mm (Note: The volume of liquid dispensed by the syringe is based on the diameter of the syringe and diameter setting must be changed if using different sizes of syringes). • Dispensing Volume set point: 5 mls • Cleaning Dispensing Rate: 5 mls/min • IPA Extraction Rate: 2.5 ml/min
• 1. Coat the slip tip side of the syringe filter (see FIG. 5) using a micro pipettor with 48-50 mg of Oil 0 Red dyed Triolein oil by setting the micro-pipettor to a volume of ˜58 ul to compensate for the lower density of the dyed oil. • 2. Slowly fill the pipette tip with oil. […]

Row | Structure (SMILES) | TEWL Mean [1] | % Sebum Removed with Syringe Method [2]
1 | CCCCCCCCCCCCOS(=O)(=O)[O-].[Na+] [SLS (10%)] | 26.03 | 
2 | CCCCCCCCCCO[C@@H]1O[C@H](CO)[C@@H](O)[C@H](O)[C@H]1O [Sample C3, Decyl Glucoside] |  | 51%
